Data on six compounds can be found in patent US20010049373A1, “Materials and methods for killing nematodes and nematode eggs” (priority 2000, published 2001).

Each structure is given as a SMILES string.

Experiment [1] relates to Caenorhabditis elegans. The experiment in a line: C. elegans L1 larvae dose-response, 5 day visual viability score (Examples 2 and 7). The experiment is classed as in vivo. The arrangement: key: Dead: only stiff L1s (no movement); Dead (L4): worms are dead, but at a later larval stage; majority of worms are L1 (based on size); majority of worms are L2 (based on size); majority of worms are L3 (based on size); majority of worms are L4 (based on size); AD: majority of worms are adult; #AD: 5 adult worms or less; B!: sterile (0-25 progeny); B: low broodsize (25-100 progeny); ˜B: moderate broodsize (100-250 progeny); <: reduced broodsize (250-500 progeny); OK: no effect (˜1000+ progeny). Conditions: day 5, Table 3; for 5 Day Visual Score V6: 0.3 μM (procedure of Example 2); for 5 Day Visual Score V5: 0.9 μM (procedure of Example 2); for 5 Day Visual Score V4: 2.6 μM (procedure of Example 2); for 5 Day Visual Score V3: 7.8 μM (procedure of Example 2); for 5 Day Visual Score V2: 23.3 μM (procedure of Example 2); for 5 Day Visual Score V1: 70 μM (procedure of Example 2). The procedure, abridged: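 Twenty L1 larvae per well in NGM with E. coli HB101 were exposed to six 3-fold dilutions from 70 μM to 0.3 μM, 1.4% DMSO final, at 20° C. Day-5 viability was scored visually under a dissecting microscope by developmental stage, adult count and brood size.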

Experiment [2] deals with Caenorhabditis elegans. The experiment in a line: HTS runs (initial and follow-up): mOD, % Run and visual score (Table 3). It is filed as in vivo. Also on record: key to Initial HTS Run Visual Score / Follow-up HTS Run Visual Score: Dead: only stiff L1s (no movement); Dead (L4): worms are dead, but at a later larval stage; majority of worms are L1 (based on size); majority of worms are L2 (based on size); majority of worms are L3 (based on size); majority of worms are L4 (based on size); AD: majority of worms are adult; #AD: 5 adult worms or less; B!: sterile (0-25 progeny); B: low broodsize (25-100 progeny); ˜B: moderate broodsize (100-250 progeny); <: reduced broodsize (250-500 progeny); OK: no effect (˜1000+ progeny). On the procedure:
The nematicidal activity of anthelmintic Compositions 48-118 were determined in accordance with the procedure outlined in Example 2.

In the case of `FC(F)(F)c1cccc(CNc2cc(Oc3ccccc3Cl)ncn2)c1` [AKC 383], in experiment [1], the “5 Day Visual Score V6” value is “OK (no effect (˜1000+ progeny))”, the “5 Day Visual Score V5” value is listed as “OK (no effect (˜1000+ progeny))”, the “5 Day Visual Score V4” value was “OK (no effect (˜1000+ progeny))” and the “5 Day Visual Score V3” value is “OK (no effect (˜1000+ progeny))”. Also, in experiment [1], the “5 Day Visual Score V2” value is “˜B (moderate broodsize (100-250 progeny))” and the “5 Day Visual Score V1” value is given as “L1”. For the same compound, in experiment [2], the “Follow-up HTS Run % Run” value stood at 110%, the “Follow-up HTS Run Visual Score” value is listed as “L4/AD/B!”, the “Follow-up HTS Run mOD” value turned out to be 149 mOD and the “Initial HTS Run % Run” value came out at 132%. Moreover, in experiment [2], the “Initial HTS Run Visual Score” value is recorded as 5AD/B and the “Initial HTS Run mOD” value was found to be 257 mOD.

For the compound `CC(C)(C)OC(=O)NCc1ccc(-c2cccc(C(=O)Nc3ccc(S(N)(=O)=O)cc3)c2)cc1` [AKC 390], in experiment [1], the “5 Day Visual Score V6” value is given as “OK (no effect (˜1000+ progeny))”, the “5 Day Visual Score V5” value is reported as “OK (no effect (˜1000+ progeny))”, the “5 Day Visual Score V4” value is given as “OK (no effect (˜1000+ progeny))” and the “5 Day Visual Score V3” value is given as “OK (no effect (˜1000+ progeny))”. Further, the “5 Day Visual Score V1” value in experiment [1] was “L1”. In addition, in experiment [2], the “Follow-up HTS Run % Run” value turned out to be 110%, the “Follow-up HTS Run Visual Score” value is recorded as “L4”, the “Follow-up HTS Run mOD” value worked out at 148 mOD and the “Initial HTS Run % Run” value turned out to be 133%. In experiment [2], the “Initial HTS Run Visual Score” value is listed as “B! (sterile (0-25 progeny))” and the “Initial HTS Run mOD” value turned out to be 260 mOD.

On to `C#Cc1cccc(N(CC(=O)Nc2ccc(S(N)(=O)=O)cc2)Cc2cccs2)c1` [AKC 394], for which, in experiment [1], the “5 Day Visual Score V6” value is reported as “< (reduced broodsize (250-500 progeny))”, the “5 Day Visual Score V5” value is reported as “OK (no effect (˜1000+ progeny))”, the “5 Day Visual Score V4” value is recorded as “OK (no effect (˜1000+ progeny))” and the “5 Day Visual Score V2” value was “Dead”. The “5 Day Visual Score V1” value in experiment [1] is given as “Dead”. Also, in experiment [2], the “Follow-up HTS Run % Run” value came out at 111%, the “Follow-up HTS Run Visual Score” value is listed as “Dead”, the “Follow-up HTS Run mOD” value came out at 150 mOD and the “Initial HTS Run % Run” value came out at 135%. In addition, in experiment [2], the “Initial HTS Run Visual Score” value is reported as “Dead” and the “Initial HTS Run mOD” value was determined as 264 mOD.

With `CCCCCCCCCCCCNc1cc(Oc2ccccc2OC)ncn1` [AKC 398], in experiment [1], the “5 Day Visual Score V6” value is given as “OK (no effect (˜1000+ progeny))”, the “5 Day Visual Score V5” value was “< (reduced broodsize (250-500 progeny))”, the “5 Day Visual Score V4” value is “OK (no effect (˜1000+ progeny))” and the “5 Day Visual Score V3” value is “#AD/˜B”. Also, in experiment [1], the “5 Day Visual Score V2” value is “Dead” and the “5 Day Visual Score V1” value is listed as “Dead”. Moreover, in experiment [2], the “Follow-up HTS Run % Run” value is listed as 93%, the “Follow-up HTS Run Visual Score” value is “Dead”, the “Follow-up HTS Run mOD” value amounted to 126 mOD and the “Initial HTS Run % Run” value amounted to 118%. Moreover, in experiment [2], the “Initial HTS Run Visual Score” value is listed as “Dead” and the “Initial HTS Run mOD” value was found to be 231 mOD.

In the case of `CCCCCCCCCCCCNc1cc(Oc2ccccc2Cl)ncn1` [AKC 404], in experiment [1], the “5 Day Visual Score V6” value is on record as “OK (no effect (˜1000+ progeny))”, the “5 Day Visual Score V5” value is listed as “OK (no effect (˜1000+ progeny))”, the “5 Day Visual Score V4” value is “OK (no effect (˜1000+ progeny))” and the “5 Day Visual Score V3” value is “OK (no effect (˜1000+ progeny))”. Moreover, in experiment [1], the “5 Day Visual Score V2” value is given as “Dead” and the “5 Day Visual Score V1” value is recorded as “Dead”. Also, in experiment [2], the “Follow-up HTS Run % Run” value came out at 124%, the “Follow-up HTS Run Visual Score” value is reported as “Dead”, the “Follow-up HTS Run mOD” value stood at 168 mOD and the “Initial HTS Run % Run” value is 155%. In addition, in experiment [2], the “Initial HTS Run Visual Score” value is “Dead” and the “Initial HTS Run mOD” value amounted to 302 mOD.

For the compound `CCC(NC(=O)Nc1ccc(NC(=O)C2CCCO2)cc1)c1cccc(S(N)(=O)=O)c1` (stereo not shown) [AKC 405], in experiment [1], the “5 Day Visual Score V6” value is “OK (no effect (˜1000+ progeny))”, the “5 Day Visual Score V5” value was “OK (no effect (˜1000+ progeny))”, the “5 Day Visual Score V4” value is on record as “OK (no effect (˜1000+ progeny))” and the “5 Day Visual Score V3” value is given as “#AD/˜B”. Besides, in experiment [1], the “5 Day Visual Score V2” value is listed as “L1” and the “5 Day Visual Score V1” value is “L1”. In addition, in experiment [2], the “Follow-up HTS Run % Run” value is recorded as 120%, the “Follow-up HTS Run Visual Score” value is listed as 1AD/B!, the “Follow-up HTS Run mOD” value was 162 mOD and the “Initial HTS Run % Run” value is listed as 141%. In addition, in experiment [2], the “Initial HTS Run Visual Score” value was 4AD/B and the “Initial HTS Run mOD” value is recorded as 274 mOD.
